# Where “and” joins values, the source holds several entries; their conditions need not be identical. Equal values may be shown once. Entries after “also recorded” stand apart in the source; their conditions may differ.
# Columns and labels:
# T47-D = test: SRB cytotoxicity assay, T47-D cells; format: cell-based; conditions: Homo sapiens, T47D, malignant, breast, 72 h
# Description: (§1) All cell lines described herein were purchased from ATCC. […] Control cultures were treated with ethanol alone.
# DU-145 = test: SRB cytotoxicity assay, DU-145 cells; format: cell-based; conditions: Homo sapiens, DU-145, malignant, prostatic, 72 h
# Description: as §1
# PC-3 = test: SRB cytotoxicity assay, PC-3 cells; format: cell-based; conditions: Homo sapiens, PC-3, malignant, prostatic, 72 h
# Description: as §1
# AsPC1 = test: SRB cytotoxicity assay, AsPC1 cells; format: cell-based, human; conditions: 72 h
# Description: as §1
# U251 = test: SRB cytotoxicity assay, U251 cells; format: cell-based; conditions: Homo sapiens, U-251, U251, malignant, glial, 72 h
# Description: as §1
# HT-29 5m11 = test: SRB cytotoxicity assay, HT-29 5m11 cells; format: cell-based; conditions: Homo sapiens, read-out: LC50 (the source's name)
# Description: as §1
# CHO = test: SRB cytotoxicity assay, CHO cells; format: cell-based; conditions: Cricetulus griseus, immortalised, ovarian, 72 h
# Description: as §1
# 28 malignant cell lines = test: SRB cytotoxicity assay, summary over malignant cell lines; format: cell-based; conditions: all 28 malignant cell lines tested, with the exception of CFPAC-1 and SKOV-3; summary of Table 3; read-out: IC50 proliferation
# Description: as §1
# HEK = test: SRB cytotoxicity assay, HEK cells; format: cell-based; conditions: Homo sapiens, HEK293, immortalised, nephritic, 72 h
# Description: as §1
# LNCaP = test: SRB cytotoxicity assay, LNCaP cells; format: cell-based, human; conditions: 72 h
# Description: as §1
# HT-1080 (Fibrosarcoma) = test: SRB cytotoxicity assay, HT-1080 cells; format: cell-based
# Description: as §1
# Hep3B = test: SRB cytotoxicity assay, Hep3B cells; format: cell-based, human; conditions: for cytotoxic effect of MPL alone: Hep3B cells
# Description: as §1
# LN-18 = test: SRB cytotoxicity assay, LN-18 cells; format: cell-based, human; conditions: 72 h
# Description: as §1
# 1A9 = test: SRB cytotoxicity assay, 1A9 cells; format: cell-based; conditions: Homo sapiens, 1A9, malignant, ovarian, 72 h
# Description: as §1
# IGROV-1 = test: SRB cytotoxicity assay, IGROV-1 cells; format: cell-based; conditions: Homo sapiens, IGROV-1, malignant, ovarian, 72 h
# Description: as §1
# SKOV-1 = test: SRB cytotoxicity assay, SKOV-1 cells
# Description: (§2) Cells were seeded in 96-well plates (2,000-3,000 cells/well), treated with the indicated compound(s) for 72 h, fixed, washed and stained with 100 μl of 0.4% (w/v) SRB dissolved in 1% acetic acid. Unbound dye was removed by five washes with 1% acetic acid before air-drying.
# (§3) MPL (5 μM) and combination drugs were applied for 72 h unless indicated.
# [1] = test system: immortalized cell lines and the CFPAC-1 and SKOV-3 cell lines; test: SRB cytotoxicity assay, summary over immortalized lines; format: cell-based; conditions: all immortalized cell lines and CFPAC-1 and SKOV-3; summary of Table 3; read-out: IC50 proliferation
# Description: as §1
# HT-29 = test: cells; format: cell-based
# Description: as §1
# [2] = test system: HUVEC, human fetal astrocytes and HOSE cells; test: SRB cytotoxicity assay, summary over early/primary passage cells; format: cell-based; conditions: summary of Table 3, read-out: IC50 proliferation
# Description: as §1
# CFPAC-1 = test: SRB cytotoxicity assay, CFPAC-1 cells
# Description: (§4) Cells were seeded in 96-well plates (2,000-3,000 cells/well) and culture overnight prior to treatment with MPL. Control cultures were treated with ethanol alone.
# (§5) Cytotoxicity was assessed using the sulforhodamine B (SRB) assay and reported as half maximal inhibitory concentration (IC50; Table 3). Cells were seeded in 96-well plates (2,000-3,000 cells/well), treated with the indicated compound(s) for 72 h, fixed, washed and stained with 100 μl of 0.4% (w/v) SRB dissolved in 1% acetic acid. Unbound dye was removed by five washes with 1% acetic acid before air-drying.
# as §3
# Human Fetal Astrocytes = test: SRB cytotoxicity assay, human fetal astrocytes; format: cell-based; conditions: Astrocyte, non-malignant, glial, 72 h
# Description: as §1
# OVCAR-3 = test: SRB cytotoxicity / proliferation assay, OVCAR-3 cells; conditions: for significant cytotoxic effect of MPL alone: OVCAR-3 cells
# Description: as §4, §5
# (§6) In order to evaluate the effect of MPL on the in vitro efficacy of an established drug was evaluated using cell viability and cell proliferation assays. Cell viability was conducted according to standard Trypan Blue method. Cell proliferation was assessed using the sulforhodamine B (SRB) assay. For viability experiments, cells were seeded in 6 well plates, whereas for proliferation assays cells were grown in 96 well plates. Following over-night attachment, cells were treated with the intended drug at various concentrations either alone or in combination with monepantel (MPL) for 72 h. Parallel to this, cells treated with MPL alone were also deployed for comparative purposes. Following incubation for 72 h in a standard cell culture incubator, effect of mono and combined drug treatments on cell viability and/or cell proliferation was assessed through using Trypan Blue or SRB assays respectively.
# (§7) For viability assay, at the end of treatment period, cells were washed with PBS, trypsinized and counted using Trypan blue and hemocytometer. For the SRB assay cells were fixed, washed and stained with 100 μl of 0.4% (w/v) SRB dissolved in 1% acetic acid. Unbound dye was removed by five washes with 1% acetic acid before air drying. […] Monepantel (gift by Novartis, Basel, Switzerland) was dissolved in 100% ethanol and then diluted with the cell culture media.
# as §3
# C170 = test: SRB cytotoxicity assay, C170 cells; format: cell-based
# Description: as §1
# HOSE = test: SRB cytotoxicity assay, HOSE non-malignant control cells; conditions: for Mpl Alone, Mpl (x/X) Inhibition: 5 μM MPL, x=events, X=experiments; for cytotoxicity of MPL alone: HOSE control cells, Table 6 footnote 3
# Description: All cell lines described herein were purchased from ATCC. Cells were seeded in 96-well plates (2,000-3,000 cells/well) and culture overnight prior to treatment with MPL. Control cultures were treated with ethanol alone.
# as §2
# Corresponding cytotoxicity of the major metabolite MPL-SO2 has also been tested where indicated. […] HUVEC, human fetal astrocytes and HOSE cells are non-transformed, non-immortalized and non-malignant, freshly isolated/low passage number cell populations, from apparently healthy non-diseased tissue. These healthy cell populations were included in the experimental series as controls for non-specific toxicity. Both MPL and MPL-SO2 were suspended in ethanol and applied in final concentrations of 0.5 to 1% ethanol in the respective culture media.
# as §6
# For viability assay, at the end of treatment period, cells were washed with PBS, trypsinized and counted using Trypan blue and hemocytometer. For the SRB assay cells were fixed, washed and stained with 100 μl of 0.4% (w/v) SRB dissolved in 1% acetic acid. Unbound dye was removed by five washes with 1% acetic acid before air drying. […] Monepantel (gift by Novartis, Basel, Switzerland) was dissolved in 100% ethanol and then diluted with the cell culture media. Other agents employed in the study were purchased either from Sigma Australia or Sapphire Australia, prepared and preserved for cell culture use according to supplier instructions.
# as §3
# YOU = test: SRB cytotoxicity assay, YOU cells; format: cell-based, human; conditions: 72 h
# Description: as §1
# 3T3 (fibroblast) = test: SRB cytotoxicity assay, 3T3 cells; format: cell-based; conditions: immortalised, mesenchymal, 72 h
# Description: as §1
# PET = test: SRB cytotoxicity assay, PET cells; format: cell-based, human; conditions: 72 h
# Description: as §1
# [3] = in vivo; cited from earlier work
# A2780 = test: SRB cytotoxicity / proliferation assay, A2780 cells; conditions: for Mpl Alone, Mpl (x/X) Inhibition: A2780 Ovarian, 72 h, x=events, X=experiments
# Description: as §4, §2
# Cell viability was conducted according to standard Trypan Blue method. Cell proliferation was assessed using the sulforhodamine B (SRB) assay. For viability experiments, cells were seeded in 6 well plates, whereas for proliferation assays cells were grown in 96 well plates. Following over-night attachment, cells were treated with the intended drug at various concentrations either alone or in combination with monepantel (MPL) for 72 h. Parallel to this, cells treated with MPL alone were also deployed for comparative purposes. Following incubation for 72 h in a standard cell culture incubator, effect of mono and combined drug treatments on cell viability and/or cell proliferation was assessed through using Trypan Blue or SRB assays respectively.
# as §7
# MCF-7 = test: SRB cytotoxicity assay, MCF-7 cells; format: cell-based; conditions: Homo sapiens, MCF7, 72 h, MCF-7, malignant, breast
# Description: as §1
smiles,measurement,setting,value
"C[C@](C#N)(COc1cc(C#N)ccc1C(F)(F)F)NC(=O)c1ccc(SC(F)(F)F)cc1 [MPL, N-[(1S)-1-cyano-2-(5-cyano-2-trifluoromethyl-phenoxy)-1-methyl-ethyl]-4-trifluoromethylsulfanyl-benzamide]",IC50,T47-D,5.3 µM
same,IC50,DU-145,23 µM
same,IC50,PC-3,21 µM
same,"Mpl Alone, Mpl (x/X) Inhibition","AsPC1; AsPC-1 Pancreatoma, 5 μM MPL, x=events, X=experiments",1/2
same,IC50,"AsPC1; Homo sapiens, AsPC1, malignant, pancreatic, SRB",7.2 ± 0.3 µM
same,IC50,U251,17 ± 1.2 µM
same,CC50,HT-29 5m11,10.4 µM
same,IC50,CHO,34.6 ± 0.8 µM
same,IC50,28 malignant cell lines,2 to 25 µM
same,IC50,HEK,34.6 ± 0.9 µM
same,IC50,"LNCaP; Homo sapiens, LNCaP, malignant, prostatic, SRB",7.3 µM
same,"Mpl Alone, Mpl (x/X) Inhibition","LNCaP; LNCAP Prostate, 5 μM MPL, x=events, X=experiments",1/1
same,"Mpl Alone, Mpl (x/X) Inhibition","HT-1080 (Fibrosarcoma); HT180 Fibrosarcoma, 5 or 10 μM MPL, 72 h, x=events, X=experiments",(1/1)
same,IC50,"HT-1080 (Fibrosarcoma); Homo sapiens, HT-1080 (Fibrosarcoma), malignant, mesenchymal, SRB, 72 h",17.2 µM
same,EC50,"HT-1080 (Fibrosarcoma); Homo sapiens, HT-1080 cells",17.2 µM
same,"Mpl Alone, Mpl (x/X) Inhibition","Hep3B; Hep3B Hepatoma, 5 μM MPL, 48 h, x=events, X=experiments",12/12
same,cytotoxic effect of MPL alone,"Hep3B; MPL 2.5 μM, 48 h",does not display a cytotoxic effect; also recorded: does not exert a cytotoxic effect
same,cytotoxic effect of MPL alone,"Hep3B; MPL 5 μM, 48 h",significant cytotoxic effect and potent effect and 12 of 12
same,IC50,"Hep3B; Homo sapiens, Hep3B, malignant, hepatic, SRB, 72 h",15.8 µM
same,IC50,"LN-18; Homo sapiens, LN-18, malignant, glial, SRB",9.4 ± 0.8 µM
same,"Mpl Alone, Mpl (x/X) Inhibition","LN-18; LN18 Glioblastoma, 5 μM MPL, x=number of events, X=number of experiments",2/2
same,IC50,1A9,2500 ± 500 nM
same,IC50,IGROV-1,4.4 ± 0.3 µM
same,"A) Single treatment, one symbol per experiment","SKOV-1; SKOV-1, MPL (5 μM), 72 h",✓✓✓
same,significant cytotoxic effect of MPL alone,"SKOV-1; SKOV-1 cells, MPL 5 μM, 3/3 experiments",significant cytotoxic effect
same,IC50,[1],12 to 35 µM
same,significant cytotoxic effect of MPL alone,"HT-29; HT29 cells, MPL (5 μM), two experiments",no significant cytotoxic effect
same,CC50,"HT-29; Homo sapiens, HT-29, HT29 cells, read-out: LC50 (the source's name)",5.9 µM
same,IC50,"HT-29; Homo sapiens, HT-29, malignant, colorectal, SRB, 72 h",5.9 ± 0.2 µM
same,IC50,[2],> 85 µM
same,"Mpl Alone, Mpl (x/X) Inhibition","CFPAC-1; CFPAC-1 Pancreatoma, 5 μM MPL, 72 h, x=events, X=experiments",1/10
same,experiments with significant cytotoxic effect of MPL alone,"CFPAC-1; CFPAC-1 cells, MPL (5 μM)",1 of 10
same,experiments with cytotoxic effect of MPL alone,"CFPAC-1; CFPAC-1 cells, MPL (10 μM), 72 h, data not shown",4 of 9
same,IC50,"CFPAC-1; Homo sapiens, CFPAC-1, 72 h",30.1 ± 5.5 µM
same,IC50,Human Fetal Astrocytes,85.6 ± 2.7 µM
same,IC50,"OVCAR-3; Homo sapiens, OVCAR-3, 72 h",6.3 ± 0.8 µM
same,"Mpl Alone, Mpl (x/X) Inhibition","OVCAR-3; OVCAR-3, 5 μM MPL, 72 h, x=events, X=experiments, Table 7",(3/3)
same,"Mpl Alone, Mpl (x/X) Inhibition","OVCAR-3; OVCAR-3, 5 or 10 μM MPL, 72 h, Table 8 lower panel, same MPL control for serotonin and wortmannin",(2/2)^2
same,"Mpl Alone, Mpl (x/X) Inhibition","OVCAR-3; OVCAR-3, 5 or 10 μM MPL, 72 h, Table 8 upper panel, x=events, X=experiments",(5/5)
same,"A) Single treatment, one symbol per experiment","OVCAR-3; OVCAR-3, MPL (5 μM), 72 h",✓✓✓✓✓✓
same,"Mpl Alone, Mpl (x/X) Inhibition","OVCAR-3; OVCAR-3 Ovarian, 5 μM MPL, 72 h, x=events, X=experiments, Table 6",4/4
same,significant cytotoxic effect of MPL alone,"OVCAR-3; MPL 2.5 μM, 1/1 experiments",but not 2.5 μM alone
same,significant cytotoxic effect of MPL alone,"OVCAR-3; MPL 5 μM, 6/6 experiments",significant cytotoxic effect
same,significant cytotoxic effect of MPL alone,"C170; C170 cells, MPL (5 μM)",one of two experiments
same,IC50,"C170; Homo sapiens, C170, malignant, colorectal, SRB, 72 h",~20 µM
same,"Mpl Alone, Mpl (x/X) Inhibition","HOSE; HOSE (Ovarian) control, Table 6",2/9^3
same,"Mpl Alone, Mpl (x/X) Inhibition","HOSE; HOSE (Ovarian), 72 h, Table 7",(0/4)
same,cytotoxic effect of MPL alone,"HOSE; HOSE cells, FIG. 22 Rows 2 (fluorouracil) and 5 (paclitaxel)",small but significant cytotoxic effect
same,significant cytotoxic effect of MPL alone,"HOSE; HOSE cells, MPL 2.5 μM, 1/1 experiments",did not induce a significant cytotoxic effect
same,significant cytotoxic effect of MPL alone,"HOSE; HOSE cells, MPL 5 μM, 3/3 experiments",did not induce a significant cytotoxic effect
same,cytotoxicity of MPL alone,HOSE; flutamide experiment,3%
same,cytotoxicity of MPL alone,HOSE; oxaliplatin experiment,5%
same,IC50,"HOSE; Homo sapiens, 72 h",> 100 µM
same,IC50,"YOU; Homo sapiens, YOU, malignant, mesothelial, SRB",23 µM
same,"Mpl Alone, Mpl (x/X) Inhibition","YOU; YOU Mesothelioma, 5 μM MPL, x=events, X=experiments",2/2
same,IC50,3T3 (fibroblast),12.4 ± 0.4 µM
same,IC50,"PET; Homo sapiens, PET, malignant, mesothelial, SRB",26 µM
same,"Mpl Alone, Mpl (x/X) Inhibition","PET; PET Mesothelioma, 5 μM MPL, x=events, X=experiments",2/2
same,single-dose toxicity,[3],> 2000 mg per kg of body weight
same,"Mpl Alone, Mpl (x/X) Inhibition","A2780; 5 μM MPL, Table 6",6/6^2
same,"Mpl Alone, Mpl (x/X) Inhibition","A2780; 5 μM MPL, Table 7",(4/4)
same,"Mpl Alone, Mpl (x/X) Inhibition","A2780; 5 or 10 μM MPL, Table 8 lower panel",(5/5)^
same,"Mpl Alone, Mpl (x/X) Inhibition","A2780; 5 or 10 μM MPL, Table 8 upper panel",(3/3)
same,IC50,"A2780; Homo sapiens, A2780, 72 h",10 ± 3.8 µM
same,IC50,MCF-7,15.5 µM

# Reference: US9833431B2, “Pharmaceutical combinations for the treatment of cancer” (Pitney Pharmaceuticals Pty Limited, priority 2013, dated 2017)
